Measured values taken from the NIST ThermoML archive (doi:10.1021/je800203s).

Tests used:
[1] = Crystal
[2] = Molar enthalpy of transition or fusion; conditions: Crystal
[3] = molar heat capacity at constant pressure; conditions: 101.33 kPa, Crystal

COc1ccc(CC#N)cc1OC [(3,4-dimethoxyphenyl)acetonitrile]
Conditions | Molar enthalpy of transition or fusion [kcal/mol] | Triple point temperature [K]
[1] | – | 337.08
[2] | 5.91 | –

[3]
Conditions | molar heat capacity at constant pressure [J/K/mol]
78.32 K | 80.52
80 K | 82.15
81.06 K | 82.37
84.38 K | 84.71
85 K | 85.39
87.3 K | 87.42
90 K | 88.81
90.17 K | 89.84
93.05 K | 91.31
95 K | 92.41
95.92 K | 93.07
98.78 K | 94.96
100 K | 96.15
102.8 K | 97.78
105 K | 100
106.79 K | 101.8
109.62 K | 103.7
110 K | 104
112.5 K | 106.5
115 K | 108
115.38 K | 108.6
118.25 K | 111
120 K | 112.1
121.12 K | 113.3
123.99 K | 115.6
125 K | 116.3
126.87 K | 118
129.71 K | 120.3
130 K | 120.4
132.55 K | 122.1
135 K | 124.6
135.4 K | 124.9
138.26 K | 127.8
140 K | 128.8
141.12 K | 129.7
143.94 K | 131.8
145 K | 133
146.78 K | 134.2
149.62 K | 136.7
150 K | 137.1
153.27 K | 139.5
155 K | 141.2
156.88 K | 142.9
159.69 K | 144.6
160 K | 145.3
162.54 K | 146.5
165 K | 149.3
165.37 K | 148.6
168.16 K | 151.4
170 K | 153.3
170.93 K | 153.9
173.78 K | 156.3
175 K | 157.2
176.63 K | 157.8
179.46 K | 159.5
180 K | 161
182.27 K | 162.3
185 K | 164.7
185.06 K | 164.3
187.83 K | 167.4
190 K | 168.4
190.65 K | 168.8
195 K | 172
196.37 K | 174.3
199.23 K | 175.5
200 K | 175.6
202.71 K | 177.3
205 K | 179
206.12 K | 180.1
208.91 K | 182.6
210 K | 182.5
211.79 K | 184.7
214.67 K | 185.5
215 K | 185.8
217.53 K | 187.8
220 K | 189.1
220.39 K | 189.8
223.24 K | 192.6
225 K | 192.4
226.07 K | 194.1
228.97 K | 196
230 K | 195.6
231.92 K | 198.1
